Read-outs that look alike come from different tables or passages of the source.
Target: T1, his-galectin-3 (Homo sapiens, UniProt P17931)
T1 construct: purchased Abcam
Experiment: TR-FRET assay (in vitro galectin-3 binding inhibitory activity test)
Conditions: compound at 20 μM, 60 nM his-galectin-3, 15 nM biotin-ASF
Summary of the method: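 Compound is premixed with his-galectin-3 (60 nM final), then biotin-ASF (15 nM), Tb anti-His antibody (2 nM) and streptavidin-d2 (20 nM) are added. After at least 3.5 hours at RT in HEPES/NaCl buffer with Tween 20 and BSA, TR-FRET is read at 615/665 nm. DMSO serves as the uninhibited control, ASF omission as background.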

[1] = Table 2, read-out: % Inhibitory activity (at 20 μM)
[2] = Table 3, found values, read-out: % Inhibitory activity (at 20 μM)
[3] = Table 1, read-out: % Inhibitory activity (at 20 μM)
[4] = read-out: % Inhibitory activity (at 20 μM), Table 1

T1 sequence (P17931 whole entry): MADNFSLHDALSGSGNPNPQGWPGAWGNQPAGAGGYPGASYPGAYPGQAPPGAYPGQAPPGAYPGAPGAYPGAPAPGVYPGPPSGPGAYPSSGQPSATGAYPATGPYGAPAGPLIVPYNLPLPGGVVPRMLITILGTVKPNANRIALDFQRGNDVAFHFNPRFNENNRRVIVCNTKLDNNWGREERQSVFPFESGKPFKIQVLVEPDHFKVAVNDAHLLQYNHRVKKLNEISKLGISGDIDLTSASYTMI

| SMILES | inhibition at 20 µM [1] | inhibition at 20 µM [3] | other results |
| --- | --- | --- | --- |
| O=C(N[C@@H]1CCO[C@]12O[C@H](CO)[C@H](O)[C@H](n1cc(-c3cc(F)c(F)c(F)c3)nn1)[C@H]2O)c1nsc2ccccc12 [Compound A182, N-((4R,5S,7R,8R,9S,10R)-8,10-dihydroxy-7-(hydroxymethyl)-9-(4-(3,4,5-trifluorophenyl)-1H-1,2,3-triazol-1-yl)-1,6-dioxaspiro[4.5]decan-4-yl)benzo[d]isothiazole-3-carboxamide] | 50 to 75% | – | inhibition at 20 µM [2]: 73% |
| O=C(N[C@@H]1CCO[C@]12O[C@H](CO)[C@H](O)[C@H](n1cc(-c3cc(F)c(F)c(F)c3)nn1)[C@H]2O)c1nsc2cc(Br)ccc12 [Compound A197, 6-bromo-N-((4R,5S,7R,8R,9S,10R)-8,10-dihydroxy-7-(hydroxymethyl)-9-(4-(3,4,5-trifluorophenyl)-1H-1,2,3-triazol-1-yl)-1,6-dioxaspiro[4.5]decan-4-yl)benzo[d]isothiazole-3-carboxamide] | 50 to 75% | – | – |
| O=C(N[C@@H]1CCO[C@]12O[C@H](CO)[C@H](O)[C@H](n1cc(-c3cc(F)c(F)c(F)c3)nn1)[C@H]2O)C1CCCc2ccccc21 (stereo partly drawn) [Compound A160, N-((4R,5S,7R,8R,9S,10R)-8,10-dihydroxy-7-(hydroxymethyl)-9-(4-(3,4,5-trifluorophenyl)-1H-1,2,3-triazol-1-yl)-1,6-dioxaspiro[4.5]decan-4-yl)-1,2,3,4-tetrahydronaphthalene-1-carboxamide] | 50 to 75% | – | – |
| CC(O[C@@H]1[C@@H](n2cc(-c3cc(F)c(F)c(F)c3)nn2)[C@@H](O)[C@@H](CO)O[C@@]12CCCO2)C(=O)O (stereo partly drawn) [Compound A66, 2-(((5S,7R,8R,9S,10R)-8-hydroxy-7-(hydroxymethyl)-9-(4-(3,4,5-trifluorophenyl)-1H-1,2,3-triazol-1-yl)-1,6-dioxaspiro[4.5]decan-10-yl)oxy)propanoic acid] | – | – | inhibition at 20 µM [4]: 25 to 50% |
| O=C(Cc1ccccc1Cl)N[C@@H]1CCO[C@]12O[C@H](CO)[C@H](O)[C@H](n1cc(-c3cc(F)c(F)c(F)c3)nn1)[C@H]2O [Compound A112, 2-(2-chlorophenyl)-N-((4R,5S,7R,8R,9S,10R)-8,10-dihydroxy-7-(hydroxymethyl)-9-(4-(3,4,5-trifluorophenyl)-1H-1,2,3-triazol-1-yl)-1,6-dioxaspiro[4.5]decan-4-yl)acetamide] | – | 50 to 75% | inhibition at 20 µM [2]: 53.8% |
| O=C(CO[C@@H]1[C@@H](n2cc(-c3cc(F)c(F)c(F)c3)nn2)[C@@H](O)[C@@H](CO)O[C@@]12CCCO2)Nc1ccccc1 [Compound A23, 2-(((5S,7R,8R,9S,10R)-8-hydroxy-7-(hydroxymethyl)-9-(4-(3,4,5-trifluorophenyl)-1H-1,2,3-triazol-1-yl)-1,6-dioxaspiro[4.5]decan-10-yl)oxy)-N-phenylacetamide] | – | 25 to 50% | – |
| O=C(O[C@@H]1[C@@H](n2cc(-c3cc(F)c(F)c(F)c3)nn2)[C@@H](O)[C@@H](CO)O[C@@]12CCCO2)c1ccccc1F [Compound A69, (5S,7R,8R,9S,10R)-8-hydroxy-7-(hydroxymethyl)-9-(4-(3,4,5-trifluorophenyl)-1H-1,2,3-triazol-1-yl)-1,6-dioxaspiro[4.5]decan-10-yl 2-fluorobenzoate] | – | – | inhibition at 20 µM [4]: 25 to 50% |
| O=C(N[C@@H]1CCO[C@]12O[C@H](CO)[C@H](O)[C@H](n1cc(-c3cc(F)c(F)c(F)c3)nn1)[C@H]2O)c1ccc(Cl)c2ccccc12 [Compound A172, 4-chloro-N-((4R,5S,7R,8R,9S,10R)-8,10-dihydroxy-7-(hydroxymethyl)-9-(4-(3,4,5-trifluorophenyl)-1H-1,2,3-triazol-1-yl)-1,6-dioxaspiro[4.5]decan-4-yl)-1-naphthamide] | > 75% | – | – |
| Cc1cc(C(=O)N[C@@H]2CCO[C@]23O[C@H](CO)[C@H](O)[C@H](n2cc(-c4cc(F)c(F)c(F)c4)nn2)[C@H]3O)c2cc(F)ccc2n1 [Compound A228, N-((4R,5S,7R,8R,9S,10R)-8,10-dihydroxy-7-(hydroxymethyl)-9-(4-(3,4,5-trifluorophenyl)-1H-1,2,3-triazol-1-yl)-1,6-dioxaspiro[4.5]decan-4-yl)-6-fluoro-2-methylquinoline-4-carboxamide] | > 75% | – | – |
| O=C(O[C@@H]1[C@@H](n2cc(-c3cc(F)c(F)c(F)c3)nn2)[C@@H](O)[C@@H](CO)O[C@@]12CCCO2)c1ccccn1 [Compound A72, (5S,7R,8R,9S,10R)-8-hydroxy-7-(hydroxymethyl)-9-(4-(3,4,5-trifluorophenyl)-1H-1,2,3-triazol-1-yl)-1,6-dioxaspiro[4.5]decan-10-yl picolinate] | – | 50 to 75% | – |
| O=C(N[C@@H]1CCO[C@]12O[C@H](CO)[C@H](O)[C@H](n1cc(-c3cc(F)c(F)c(F)c3)nn1)[C@H]2O)c1cccc2ncc(F)cc12 [Compound A216, N-((4R,5S,7R,8R,9S,10R)-8,10-dihydroxy-7-(hydroxymethyl)-9-(4-(3,4,5-trifluorophenyl)-1H-1,2,3-triazol-1-yl)-1,6-dioxaspiro[4.5]decan-4-yl)-3-fluoroquinoline-5-carboxamide] | > 75% | – | – |
| O=C1CCCC2(N1)O[C@H](CO)[C@H](O)[C@H](n1cc(-c3cc(F)c(F)c(F)c3)nn1)[C@H]2O (single isomer, unassigned) [Compound A89] | – | < 25% | – |
| O=C(N[C@@H]1CCO[C@]12O[C@H](CO)[C@H](O)[C@H](n1cc(-c3cc(F)c(F)c(F)c3)nn1)[C@H]2O)c1cccc2ncccc12 [Compound A212, N-((4R,5S,7R,8R,9S,10R)-8,10-dihydroxy-7-(hydroxymethyl)-9-(4-(3,4,5-trifluorophenyl)-1H-1,2,3-triazol-1-yl)-1,6-dioxaspiro[4.5]decan-4-yl)quinoline-5-carboxamide] | > 75% | – | – |

Continued, in another order:

| inhibition at 20 µM [1] | inhibition at 20 µM [3] | SMILES | other results |
| --- | --- | --- | --- |
| < 25% | – | O=C(N[C@@H]1CCO[C@]12O[C@H](CO)[C@H](O)[C@H](n1cc(-c3cc(F)c(F)c(F)c3)nn1)[C@H]2O)c1csc2cccc(Br)c12 [Compound A248, 4-bromo-N-((4R,5S,7R,8R,9S,10R)-8,10-dihydroxy-7-(hydroxymethyl)-9-(4-(3,4,5-trifluorophenyl)-1H-1,2,3-triazol-1-yl)-1,6-dioxaspiro[4.5]decan-4-yl)benzo[b]thiophene-3-carboxamide] | – |
| – | 25 to 50% | OC[C@H]1O[C@@]2(CCCO2)[C@H](OCc2ccccc2)[C@@H](n2cc(-c3cc(F)c(F)c(F)c3)nn2)[C@H]1O [Compound A13, (5S,7R,8R,9S,10R)-10-(benzyloxy)-7-(hydroxymethyl)-9-(4-(3,4,5-trifluorophenyl)-1H-1,2,3-triazol-1-yl)-1,6-dioxaspiro[4.5]decan-8-ol] | – |
| – | 25 to 50% | O=C(O[C@@H]1[C@@H](n2cc(-c3cc(F)c(F)c(F)c3)nn2)[C@@H](O)[C@@H](CO)O[C@@]12CCCO2)c1cc(F)cc(F)c1 [Compound A92, (5S,7R,8R,9S,10R)-8-hydroxy-7-(hydroxymethyl)-9-(4-(3,4,5-trifluorophenyl)-1H-1,2,3-triazol-1-yl)-1,6-dioxaspiro[4.5]decan-10-yl 3,5-difluorobenzoate] | – |
| < 25% | – | O=C(c1ccc2ccccc2c1)N1CCC[C@]2(C1)O[C@H](CO)[C@H](O)[C@H](n1cc(-c3cc(F)c(F)c(F)c3)nn1)[C@H]2O [Compound A186, ((2R,3R,4S,5R,6R)-3,5-dihydroxy-2-(hydroxymethyl)-4-(4-(3,4,5-trifluorophenyl)-1H-1,2,3-triazol-1-yl)-1-oxa-8-azaspiro[5.5]undecan-8-yl)(naphthalen-2-yl)methanone] | – |
| – | 25 to 50% | OC[C@H]1O[C@]2(OCC[C@H]2NCc2cc(Cl)ccc2O)[C@H](O)[C@@H](n2cc(-c3cc(F)c(F)c(F)c3)nn2)[C@H]1O [Compound A126, (4R,5S,7R,8R,9S,10R)-4-((5-chloro-2-hydroxybenzyl)amino)-7-(hydroxymethyl)-9-(4-(3,4,5-trifluorophenyl)-1H-1,2,3-triazol-1-yl)-1,6-dioxaspiro[4.5]decane-8,10-diol] | – |
| – | 25 to 50% | O=C(N[C@@H]1CCO[C@]12O[C@H](CO)[C@H](O)[C@H](n1cc(-c3cc(F)c(F)c(F)c3)nn1)[C@H]2O)c1ccc(Oc2ccccc2)cc1 [Compound A120, N-((4R,5S,7R,8R,9S,10R)-8,10-dihydroxy-7-(hydroxymethyl)-9-(4-(3,4,5-trifluorophenyl)-1H-1,2,3-triazol-1-yl)-1,6-dioxaspiro[4.5]decan-4-yl)-4-phenoxybenzamide] | – |
| – | 25 to 50% | OC[C@H]1O[C@@]2(CCCCO2)[C@H](OCc2ccccc2)[C@@H](n2cc(-c3cc(F)c(F)c(F)c3)nn2)[C@H]1O [Compound A25, (2R,3R,4S,5R,6S)-5-(benzyloxy)-2-(hydroxymethyl)-4-(4-(3,4,5-trifluorophenyl)-1H-1,2,3-triazol-1-yl)-1,7-dioxaspiro[5.5]undecan-3-ol] | – |
| 50 to 75% | – | O=C(N[C@@H]1CCO[C@]12O[C@H](CO)[C@H](O)[C@H](n1cc(-c3cc(F)c(F)c(F)c3)nn1)[C@H]2O)c1cc(=O)[nH]c2ccccc12 [Compound A254, N-((4R,5S,7R,8R,9S,10R)-8,10-dihydroxy-7-(hydroxymethyl)-9-(4-(3,4,5-trifluorophenyl)-1H-1,2,3-triazol-1-yl)-1,6-dioxaspiro[4.5]decan-4-yl)-2-oxo-1,2-dihydroquinoline-4-carboxamide] | – |
| – | 25 to 50% | OC[C@H]1O[C@@]2(CCCO2)[C@H](OCc2cccc(O)c2)[C@@H](n2cc(-c3cc(F)c(F)c(F)c3)nn2)[C@H]1O [Compound A38, (5S,7R,8R,9S,10R)-10-((3-hydroxybenzyl)oxy)-7-(hydroxymethyl)-9-(4-(3,4,5-trifluorophenyl)-1H-1,2,3-triazol-1-yl)-1,6-dioxaspiro[4.5]decan-8-ol] | – |

From US20250026778A1 (TIUMBIO CO., LTD., priority 2021, published 2025)
